Test results reported in US9540376B2, “Hexahydrodiazepinoquinolines carrying a substituted alkyl radical” (priority 2014, dated 2017).

Columns and labels:
Format in all cases: cell-based
[1] = biological target: T1, 5-HT2C receptor (Homo sapiens, UniProt P28335); assay: Human 5-HT2C functional assay (beta-arrestin2 recruitment, U2OS_HTR2C_β-Arrestin cells); settings: for EC50: potency in functional assay, beta-arrestin2 recruitment, 1.5 h incubation; for Emax: read-out: % efficacy (5-HT2C), relative efficacy vs 10 μM 5-HT or maximal 5-HT effect (100%); for % efficacy (5-HT2C): relative efficacy vs 10 μM 5-HT or maximal 5-HT effect (100%)
T1 construct: host or cells: U2OS
T1 sequence (P28335 33-458): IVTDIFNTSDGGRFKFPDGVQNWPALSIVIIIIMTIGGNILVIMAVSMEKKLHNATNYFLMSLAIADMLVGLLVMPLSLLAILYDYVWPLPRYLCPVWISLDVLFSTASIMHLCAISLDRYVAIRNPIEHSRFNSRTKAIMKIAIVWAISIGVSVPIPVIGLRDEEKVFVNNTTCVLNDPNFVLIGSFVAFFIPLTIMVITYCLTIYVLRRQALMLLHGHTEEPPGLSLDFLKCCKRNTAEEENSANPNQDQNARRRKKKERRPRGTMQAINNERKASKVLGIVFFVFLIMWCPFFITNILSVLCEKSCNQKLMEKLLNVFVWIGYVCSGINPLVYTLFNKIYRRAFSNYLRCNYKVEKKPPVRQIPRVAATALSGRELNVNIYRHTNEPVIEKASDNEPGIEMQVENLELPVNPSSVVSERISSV
T1 sequence (P32121 whole entry partner): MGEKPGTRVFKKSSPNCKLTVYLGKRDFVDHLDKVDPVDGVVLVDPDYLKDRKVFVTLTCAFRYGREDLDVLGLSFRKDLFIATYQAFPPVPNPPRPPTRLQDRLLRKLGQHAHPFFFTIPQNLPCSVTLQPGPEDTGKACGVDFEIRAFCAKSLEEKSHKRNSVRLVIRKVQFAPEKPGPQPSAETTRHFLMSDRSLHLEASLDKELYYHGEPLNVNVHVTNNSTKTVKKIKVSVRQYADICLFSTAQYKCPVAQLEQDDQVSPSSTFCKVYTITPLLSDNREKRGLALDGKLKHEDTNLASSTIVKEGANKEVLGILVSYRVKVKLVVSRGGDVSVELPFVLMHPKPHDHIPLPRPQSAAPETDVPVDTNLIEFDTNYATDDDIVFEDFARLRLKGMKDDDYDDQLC
Experimental: 1. Human 5-HT2C Functional Assay
The functional activity of compounds of formula I was assayed by incubation with U2OS_HTR2C_β-Arrestin cells (DiscoverX, 93-0289C3) to induce beta-arrestin2 recruitment to the 5-HT2C receptor. The agonist-induced recruitment and proximity of the receptor and beta-arrestin2 leads to complementation and formation of active β-galactosidase. The enzyme complementation results in enzyme activity, which is measured following the termination of the agonist incubation using DiscoveRx's detection reagent, which contains a chemiluminescent substrate which produces a high intensity signal. Cells were plated and a medium-change to a 1% serum containing medium was performed 24 h later. The next day, test compounds were added and incubated for 1.5 h before addition of detection reagent.
The response produced was measured and compared with the response produced by 10 [mu]M 5-HT or the maximal effect induced by 5-HT (defined as 100%) to which it was expressed as a percentage response (relative efficacy).

[2] = biological target: T2, human 5-HT2B receptor (Homo sapiens, UniProt P41595); assay: Human 5-HT2B functional assay (calcium mobilisation in CHO-FlpIn cells); settings: for EC50: potency in functional assay, agonism (first addition), calcium mobilisation; for Selectivity (based on agonism) EC50 5-HT2B/EC50 5-HT2C: ratio EC50 5-HT2B/EC50 5-HT2C; for Emax: read-out: % efficacy (5-HT2B), relative efficacy vs maximal effect of serotonin alone (100%)
T2 construct: expressed in transfected cells; host or cells: CHO-FlpIn
T2 sequence (P41595 whole entry): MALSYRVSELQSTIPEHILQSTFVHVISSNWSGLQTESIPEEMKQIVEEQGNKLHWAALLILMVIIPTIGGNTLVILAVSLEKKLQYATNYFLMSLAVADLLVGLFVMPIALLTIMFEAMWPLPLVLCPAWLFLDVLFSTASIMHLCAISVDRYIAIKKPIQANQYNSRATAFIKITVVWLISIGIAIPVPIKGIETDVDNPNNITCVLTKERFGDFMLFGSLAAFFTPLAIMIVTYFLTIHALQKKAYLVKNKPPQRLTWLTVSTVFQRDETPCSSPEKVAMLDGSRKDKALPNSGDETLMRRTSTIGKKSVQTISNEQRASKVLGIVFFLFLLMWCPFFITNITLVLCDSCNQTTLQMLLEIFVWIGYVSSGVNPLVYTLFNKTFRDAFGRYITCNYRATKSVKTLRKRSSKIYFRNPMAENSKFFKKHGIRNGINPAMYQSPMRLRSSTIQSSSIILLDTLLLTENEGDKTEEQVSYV
Experimental: 3. Human 5-HT2B Functional Assay
Cells were seeded into sterile black 384-well plates with clear bottom at 30,000 cells/well in a volume of 25 μl and grown overnight at 37° C., in 5% CO2 in tissue culture medium (“CHO-S-SFM II” by Invitrogen), containing 1% dialysed FCS and 50 μg/ml gentamicin (Invitrogen). On the next morning, medium was replaced by a serum free version of the same tissue culture medium for a further incubation for 4 hours at 37° C. and in 5% CO2. Cells were then loaded with a fluorescent calcium-sensitive dye in the presence of 0.07% probenecid for an hour at 37° C., according to the manufacturer's protocol (Ca5-Assay Kit, Molecular Devices), followed by an additional 60 min incubation at room temperature. Serial compound dilutions (final concentrations of 10^−10 to 10^−5M, prepared in HBSS+50 mM HEPES) were first added to the cells alone (“first addition” to assess agonism on the 5-HT2B receptor), then after 8 min, serotonin was added to the same wells at a final concentration of 10^−8 M (“second addition” to see potential antagonistic effect) and the maximal calcium response was determined using a FLIPR® Tetra instrument (Molecular Devices) in each of the two steps. The relative efficacy of the compounds was calculated as a percentage of the maximal effect induced by serotonin alone (defined as 100%). To determine EC50/IC50 values, concentration-response curves were fitted using a four-parameter logistic equation (IDBS Biobook™). Kb values were calculated from IC50 values, according to Cheng & Prusoff.

[3] = biological target: T3, human 5-HT2A receptor (Homo sapiens, UniProt P28223); assay: Human 5-HT2A functional assay (calcium mobilisation in CHO-K1 cells); settings: for EC50: potency in functional assay, agonism (first addition), calcium mobilisation; for Emax: CHO-K1, read-out: % efficacy (5-HT2A); for Selectivity (based on agonism) EC50 5-HT2A/EC50 5-HT2C: ratio EC50 5-HT2A/EC50 5-HT2C
T3 construct: expressed in transfected cells; host or cells: CHO-K1
T3 sequence (P28223 whole entry): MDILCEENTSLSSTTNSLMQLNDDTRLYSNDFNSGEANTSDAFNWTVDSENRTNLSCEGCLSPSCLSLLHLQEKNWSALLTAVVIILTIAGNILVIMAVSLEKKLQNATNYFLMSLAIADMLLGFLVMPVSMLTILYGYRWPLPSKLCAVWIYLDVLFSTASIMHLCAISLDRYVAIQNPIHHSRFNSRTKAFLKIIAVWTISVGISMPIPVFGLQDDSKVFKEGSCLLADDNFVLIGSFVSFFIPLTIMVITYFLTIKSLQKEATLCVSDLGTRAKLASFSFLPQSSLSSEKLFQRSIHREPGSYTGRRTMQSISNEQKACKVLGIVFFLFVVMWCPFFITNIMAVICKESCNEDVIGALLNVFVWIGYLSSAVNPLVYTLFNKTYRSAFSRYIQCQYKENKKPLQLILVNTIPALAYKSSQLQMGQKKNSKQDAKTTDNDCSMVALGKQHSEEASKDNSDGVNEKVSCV
Experimental: 2. Human 5-HT2A Functional Assay
Cells were seeded into sterile black 384-well plates with clear bottom at 25,000 cells/well in a volume of 25 μl and grown for 5-6 hours at 37° C., in 5% CO2 in tissue culture medium (“Ultra CHO” by LONZA), containing 1% dialysed FCS and 50 μg/ml gentamicin (Invitrogen). After this incubation, medium was replaced by a serum free version of the same tissue culture medium followed by incubation overnight at 37° C. and in 5% CO2. Cells were then loaded with a fluorescent calcium-sensitive dye in the presence of 0.07% probenecid for an hour at 37° C., according to the manufacturer's protocol (Ca5-Assay Kit, Molecular Devices), followed by an additional 60 min incubation at room temperature. […] The relative efficacy of the compounds was calculated as a percentage of the maximal effect induced by serotonin alone (defined as 100%). To determine EC50/IC50 values, concentration-response curves were fitted using a four-parameter logistic equation (IDBS Biobook™). Kb values were calculated from IC50 values, according to Cheng & Prusoff.

Compound	EC50 [1] [nM]	Emax [1] [%]	EC50 [2] [nM]	EC50 [3] [nM]	also measured
CC1CNCc2cccc3c2N1CCC3C(F)(F)F (single isomer, unassigned) [Isomer 4.A, 4-methyl-8-(trifluoromethyl)-2,3,4,6,7,8-hexahydro-1H-[1,4]diazepino[6,7,1-ij]quinoline]	< 20	101	> 10000	> 10000	
CC1CNCc2cccc3c2N1CCC3C(F)(F)F (single isomer, unassigned) [Isomer 4.B, 4-methyl-8-(trifluoromethyl)-2,3,4,6,7,8-hexahydro-1H-[1,4]diazepino[6,7,1-ij]quinoline]	20 to 200		> 10000		% efficacy (5-HT2C) ([1]; listed as 4.B): 87%; EC50 ([3]; listed as 4.B): > 10000 nM
CC1CNCc2cccc3c2N1CCC3C(F)(F)F (single isomer, unassigned) [Isomer 4.C, 4-methyl-8-(trifluoromethyl)-2,3,4,6,7,8-hexahydro-1H-[1,4]diazepino[6,7,1-ij]quinoline]	< 20		20 to 200	20 to 200	% efficacy (5-HT2C) ([1]; listed as 4.C): 101%; Selectivity (based on agonism) EC50 5-HT2B/EC50 5-HT2C ([2]; listed as 4.C): 12; Emax [2]: 44%; Emax [3]: 24%; Selectivity (based on agonism) EC50 5-HT2A/EC50 5-HT2C [3]: 2
CC1CNCc2cccc3c2N1CCC3C(F)(F)F (single isomer, unassigned) [Isomer 4.D, 4-methyl-8-(trifluoromethyl)-2,3,4,6,7,8-hexahydro-1H-[1,4]diazepino[6,7,1-ij]quinoline]	200 to 1000		200 to 1000		% efficacy (5-HT2C) ([1]; listed as 4.D): 86%; Selectivity (based on agonism) EC50 5-HT2B/EC50 5-HT2C ([2]; listed as 4.D): 2; % efficacy (5-HT2B) ([2]; relative efficacy vs maximal effect of serotonin alone (100%)): 30%; EC50 ([3]; listed as 4.D): > 10000 nM
CC1CNCc2cccc3c2N1CCC3C(F)F (single isomer, unassigned) [Isomer 5.A, 8-(difluoromethyl)-4-methyl-2,3,4,6,7,8-hexahydro-1H-[1,4]diazepino[6,7,1-ij]quinoline]	< 20		200 to 1000	< 20	% efficacy (5-HT2C) ([1]; listed as 5.A): 109%; Selectivity (based on agonism) EC50 5-HT2B/EC50 5-HT2C [2]: 20; Emax [2]: 36%; Emax [3]: 21%; Selectivity (based on agonism) EC50 5-HT2A/EC50 5-HT2C [3]: 0.5
CC1CNCc2cccc3c2N1CCC3C(F)F (single isomer, unassigned) [Isomer 5.B, 8-(difluoromethyl)-4-methyl-2,3,4,6,7,8-hexahydro-1H-[1,4]diazepino[6,7,1-ij]quinoline]	20 to 200		> 10000	> 10000	% efficacy (5-HT2C) ([1]; listed as 5.B): 110%
CC1CNCc2cccc3c2N1CCC3C(F)F (single isomer, unassigned) [Isomer 5.C, 8-(difluoromethyl)-4-methyl-2,3,4,6,7,8-hexahydro-1H-[1,4]diazepino[6,7,1-ij]quinoline]	200 to 1000		> 10000		% efficacy (5-HT2C) ([1]; listed as 5.C): 89%; EC50 ([3]; listed as 5.C): > 10000 nM
CC1CNCc2cccc3c2N1CCC3C(F)F (single isomer, unassigned) [Isomer 5.D, 8-(difluoromethyl)-4-methyl-2,3,4,6,7,8-hexahydro-1H-[1,4]diazepino[6,7,1-ij]quinoline]	200 to 1000		> 10000		% efficacy (5-HT2C) ([1]; listed as 5.D): 84%; EC50 ([3]; listed as 5.D): > 10000 nM
CC1CNCc2cccc3c2N1CCC3C(F)(F)F (centres unmarked) [Example 4, 4-Methyl-8-(trifluoromethyl)-2,3,4,6,7,8-hexahydro-1H-[1,4]diazepino[6,7,1-ij]quinoline]	20 to 200	104	> 10000	> 10000	
CC1CNCc2cccc3c2N1CCC3C(F)F (centres unmarked) [Example 5, 8-(Difluoromethyl)-4-methyl-2,3,4,6,7,8-hexahydro-1H-[1,4]diazepino[6,7,1-ij]quinoline]	20 to 200	95	> 10000	> 10000	
CC1CNCc2cccc3c2N1CCC3CF (centres unmarked) [Example 7, 8-(Fluoromethyl)-4-methyl-2,3,4,6,7,8-hexahydro-1H-[1,4]diazepino[6,7,1-ij]quinoline]	20 to 200	107	> 10000	> 10000	
CCOCC1CCN2c3c(cccc31)CNCC2C (centres unmarked) [Example 8, 8-(Ethoxymethyl)-4-methyl-2,3,4,6,7,8-hexahydro-1H-[1,4]diazepino[6,7,1-ij]quinoline]	200 to 1000	93	> 10000	> 10000	
COCC1CCN2c3c(cccc31)CNCC2C (centres unmarked) [Example 9, 8-(Methoxymethyl)-4-methyl-2,3,4,6,7,8-hexahydro-1H-[1,4]diazepino[6,7,1-ij]quinoline]	200 to 1000	82	> 10000	> 10000	
